Assay results taken from patent US7452908B2, “Amide derivatives” (Banyu Pharmaceutical Co., Ltd., priority 1999, dated 2008).

Columns and labels:
[1] = target: T1, human m5 muscarinic acetylcholine receptor expressed in CHO cells (Homo sapiens, UniProt P08912); test: Inhibition of [3H]-N-methylscopolamine binding to muscarinic m5 receptor; details: 0.2 nM [3H]-N-methylscopolamine
T1 construct: purchased Receptor Biology, Inc; host or cells: CHO cells
T1 sequence (P08912 1-532): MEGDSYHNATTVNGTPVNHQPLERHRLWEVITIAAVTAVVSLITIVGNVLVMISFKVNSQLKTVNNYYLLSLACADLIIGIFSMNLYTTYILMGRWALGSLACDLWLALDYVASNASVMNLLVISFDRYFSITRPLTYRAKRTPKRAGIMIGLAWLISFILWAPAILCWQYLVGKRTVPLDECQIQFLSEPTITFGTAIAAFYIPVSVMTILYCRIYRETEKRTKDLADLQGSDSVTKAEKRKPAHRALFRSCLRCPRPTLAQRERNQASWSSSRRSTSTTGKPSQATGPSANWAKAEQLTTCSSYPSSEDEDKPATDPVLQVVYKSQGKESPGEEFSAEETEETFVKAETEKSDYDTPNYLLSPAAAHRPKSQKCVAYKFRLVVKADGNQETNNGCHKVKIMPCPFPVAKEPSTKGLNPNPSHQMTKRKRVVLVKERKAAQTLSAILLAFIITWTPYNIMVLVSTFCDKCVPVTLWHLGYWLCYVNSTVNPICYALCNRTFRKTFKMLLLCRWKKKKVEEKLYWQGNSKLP
Procedure: (§1) These tests were performed according to a modification of the method of Hargreaves, et al. (Br. J. Pharmacol. 107: 494-501, 1992). Namely, muscarinic acetylcholine receptors of human m1, m2, m3, m4 and m5 expressed in CHO cells (Receptor Biology, Inc.) were incubated with 0.2 nM [^3H]-N-methylscopolamine (82Ci/mmol, New England Nuclear, Inc.) and a test compound to be tested in 0.5 ml of 50 mM Tris-HCl, 10 mM MgCl2, 1 mM EDTA solution (pH 7.4) for 120 minutes at room temperature (about 20-25° C.), followed by suction filtration over a glass filter (UniFilter plate-GF/C; Packard). Then the filter was washed four times with 1 ml of ice-cold Tris-HCl buffer and dried at 50° C. for an hour. After adding a scintillator (Microscinti 0; Packard), the radioactivity of [^3H]-N-methylscopolamine binding to the filter was counted with a microplate scintillation counter (TopCount™; Packard). Non-specific receptor binding of [^3H]-N-methylscopolamine was measured by adding 1 μM N-methylscopolamine.

[2] = target: T2, human m1 muscarinic acetylcholine receptor expressed in CHO cells (Homo sapiens, UniProt P11229); test: Inhibition of [3H]-N-methylscopolamine binding to muscarinic m1 receptor; details: 0.2 nM [3H]-N-methylscopolamine
T2 construct: purchased Receptor Biology, Inc; host or cells: CHO cells
T2 sequence (P11229 1-460): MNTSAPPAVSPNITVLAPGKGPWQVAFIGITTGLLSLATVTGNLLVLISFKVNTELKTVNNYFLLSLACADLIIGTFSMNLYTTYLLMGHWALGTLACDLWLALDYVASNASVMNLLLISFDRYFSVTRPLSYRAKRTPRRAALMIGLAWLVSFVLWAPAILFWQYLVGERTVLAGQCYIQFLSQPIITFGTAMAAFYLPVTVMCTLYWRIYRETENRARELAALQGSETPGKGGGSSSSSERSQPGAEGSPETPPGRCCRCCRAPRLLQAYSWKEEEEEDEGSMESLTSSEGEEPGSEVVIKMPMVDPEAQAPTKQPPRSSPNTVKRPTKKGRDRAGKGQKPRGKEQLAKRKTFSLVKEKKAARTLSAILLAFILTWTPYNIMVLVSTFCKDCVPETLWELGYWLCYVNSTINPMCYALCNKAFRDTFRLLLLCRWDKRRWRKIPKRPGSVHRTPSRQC
Procedure: as §1

[3] = test system: muscarinic M3 receptor; test: Antagonism to muscarinic M3 receptor in vivo: acetylcholine-induced airway resistance-increasing reaction in rats; design: species or system rat; details: for Selectivity M1/M3 (in vivo): ratio of ED50 M1 to ED50 M3, rats i.v.; for Selectivity M2/M3 (in vivo): ratio of ED50 M2 to ED50 M3, rats i.v.
Procedure: (§2) Male SD strain rats (weighing 300-500 g) were anesthetized with urethane (1 g/kg) and α-chloralose (50 mg/kg) administered intraperitoneally. The airway and carotid artery of each rat were isolated by laryngotomy and cannulated. The carotid artery cannula was used as the test compound administration route. After suppressing spontaneous respiration by hypodermic administration of succinylcholine (5 mg/body), the rats were transferred into Plethysmograph-box (PLYAN, Buxco) and artificially ventilated under the conditions of ventilation rate of 6 ml/kg per breath and respiration rate of 90 breaths/min., using a pulmotor for small animals (Model 681, Harvard Co.). Measurements of air rate and […], calculation of airway resistance and lung compliance and their recording were conducted with lung function analyzer (Model 6, Buxco). After about 10 minutes' stabilization period, the change in airway resistance induced by intravenous administration of acetylcholine (50 μg/kg) was measured twice at 5 minutes' interval. The change in airway resistance induced by the second acetylcholine administration was recorded as the pre-administration of the tested rat (pre-value). Five (5) minutes afterthe second acetylcholine-induced reaction measurement, the test compound or isotonic sodium chloride solution was intravenously administered. Five (5) minutes thereafter, acetylcholine was administered and whereby induced airway resistance change was measured. In this experiment, one-dosage evaluation was conducted per one animal of the tested rats. The changes in acetylcholine-induced airway resistance-increasing reaction (% of pre-value) caused by the tested compound and isotonic sodium chloride solution were calculated by the following Equation 1: […]
(§3) The inhibitory effect (inhibition ratio) of each test compound on the acetylcholine-induced airway resistance-increasing reaction was determined according to the following Equation 2.
(§4) Fifty (50)% inhibition dose (ED50; μg/kg) was calculated from the inhibition ratio of each dose of the tested compound.

[4] = target: T3, muscarinic M3 receptor (Rattus norvegicus, UniProt P08483); test: as above; details: rat, iv, rats, acetylcholine (50 μg/kg) 5 minutes after test compound; read-out: ED50 Airway constriction M3
T3 construct: from tissue; host or cells: whole animal, male SD rats (in vivo)
Procedure: as §2, §3, §4

[5] = target: T4, M2 receptor (Rattus norvegicus, UniProt P10980); test: Antagonism to M2 receptor in vivo: acetylcholine-induced bradycardia reaction in rats; details: iv, acetylcholine (10 μg/kg) 5 minutes after test compound
T4 construct: from tissue; host or cells: whole animal, male SD rats (in vivo)
T4 sequence (P10980 1-466): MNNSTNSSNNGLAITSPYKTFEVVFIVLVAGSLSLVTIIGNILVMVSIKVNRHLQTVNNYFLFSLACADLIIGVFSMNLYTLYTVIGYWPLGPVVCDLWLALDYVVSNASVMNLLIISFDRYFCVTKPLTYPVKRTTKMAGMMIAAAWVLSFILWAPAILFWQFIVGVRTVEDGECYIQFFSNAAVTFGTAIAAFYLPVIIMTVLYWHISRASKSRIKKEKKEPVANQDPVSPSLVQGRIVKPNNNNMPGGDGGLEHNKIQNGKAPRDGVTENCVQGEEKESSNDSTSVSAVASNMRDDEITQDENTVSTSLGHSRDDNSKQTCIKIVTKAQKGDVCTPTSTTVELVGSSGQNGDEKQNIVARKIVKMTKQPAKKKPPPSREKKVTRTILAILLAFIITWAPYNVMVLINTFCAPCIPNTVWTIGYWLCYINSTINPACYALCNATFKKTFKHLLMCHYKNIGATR
Procedure: Male SD strain rats (weighing 300-500 g) were anesthetized with urethane (1 g/kg) and α-chloralose (50 mg/kg) administered intraperitoneally. […] In this experiment, one-dosage evaluation was conducted per one animal of the tested rats.

T3 sequence (P08483 whole entry): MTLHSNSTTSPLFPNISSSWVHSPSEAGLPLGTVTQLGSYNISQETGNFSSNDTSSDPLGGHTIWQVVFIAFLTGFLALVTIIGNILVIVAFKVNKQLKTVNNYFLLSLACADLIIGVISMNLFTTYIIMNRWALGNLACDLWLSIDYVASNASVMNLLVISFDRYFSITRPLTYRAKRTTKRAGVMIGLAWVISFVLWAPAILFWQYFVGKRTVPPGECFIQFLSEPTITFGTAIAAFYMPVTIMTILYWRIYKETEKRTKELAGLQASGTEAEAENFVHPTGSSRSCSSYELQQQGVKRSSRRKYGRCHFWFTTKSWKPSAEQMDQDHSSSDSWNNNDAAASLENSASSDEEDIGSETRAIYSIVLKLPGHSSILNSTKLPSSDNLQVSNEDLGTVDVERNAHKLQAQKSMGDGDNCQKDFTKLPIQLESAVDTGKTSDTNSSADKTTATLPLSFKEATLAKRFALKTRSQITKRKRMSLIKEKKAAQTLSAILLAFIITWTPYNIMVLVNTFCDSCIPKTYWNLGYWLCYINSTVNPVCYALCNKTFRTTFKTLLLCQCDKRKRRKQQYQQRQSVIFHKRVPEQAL

Row | SMILES | Ki [1] [µM] | Ki [2] [µM] | Selectivity M1/M3 (in vivo) [3] [times] | Selectivity M2/M3 (in vivo) [3] [times] | ED50 [4] [mg/kg] | ED50 [5] [mg/kg]
1 | O=C(CCNC(=O)CNC(=O)CC(c1ccccc1)(c1ccccc1)c1ccccc1)NC[C@H]1CCCN(CC2CCCCC2)C1 [Example 12, N-{2-(3-{((3R)-1-cyclohexylmethyl-3-piperidyl)methyl}amino-3-oxopropyl)amino-2-oxoethyl}-3,3,3-triphenyloropanamide] | 0.032 | 0.14 | >200 | 100 | 0.015 | 1.55
2 | CC[N+]1(CC)CCC[C@H](CNC(=O)[C@H]2CCCN2C(=O)[C@@H]2C[C@@H](O)CN2C(=O)CC(c2ccccc2)(c2ccccc2)c2ccccc2)C1.[Cl-] [Example 133, (3R)-1,1-diethyl-3-({({(2R)-1-({(2S,4R)-4-hydroxy-1-(3,3,3-triphenylpropanoyl)-2-pyrrolidinyl}carbonyl)-2-pyrrolidinyl}carbonyl)amino}methyl)piperidinium chloride] | 1.6 | > 2.5 | >143 | 54 | 0.0021 | 0.114
